# Measurements: patent publication US12564597B2 (priority 2020, dated 2026)
# Experiments:
# [1] = Metabolic stability and noribogaine formation in rat liver microsomes (RLM); conditions: for Percentage turnover of test compounds (percent remaining): 10 μM, +NADPH
# Procedure: (§1) Metabolism Studies. Metabolic stability of test compounds was evaluated in liver microsomes from rat (RLM) and human (HLM). This was accomplished by incubating test compounds with microsomes and monitoring disappearance of parent compound as well as metabolite formation over time using LC-MS/MS in Multiple Reaction Monitoring mode (MRM).
# (§2) Stock solutions of test compounds were prepared in DMSO at a concentration of 10 mM.
# (§3) Total Incubation volume: 100 μL
# (§4) Compound concentration: 10 μM
# (§5) Protein Concentration: 0.5 mg/mL (0.25 mg/mL for positive controls)
# (§6) From the above mix, 70 PL was added to individual wells of 96 well reaction plates and pre-incubated at 37° C. for 5 min. […] Reactions without NADPH and buffer controls (minus NADPH) at 0 min and 60 min were also incubated to rule out non-NADPH metabolism or chemical instability in the incubation buffer. All reactions were terminated using 100 μL of ice-cold acetonitrile containing internal standard (glipizide) at 0, 5, 15, 30 and 60 min.
# (§7) Stock solution of noribogaine was prepared in DMSO at a concentration of 20 mM and serially diluted in DMSO to prepare 10, 3, 1, 0.3, 0.1 and 0.03 mM solutions respectively.
# (§8) Samples were monitored for parent compounds disappearance and formation of metabolite in MRM mode using LC-MS/MS instrument (API-4000 with Waters UPLC).
# (§9) The percent remaining of test compounds and positive control in each sample was determined by considering peak area ratio in the 0 minute sample as 100%.
# (§10) In vitro intrinsic clearance (CL′int) (units in mL/min/kg) was calculated using the formula: […]
# (§11) For human, monkey, dog, rat and mouse the liver weight are 20 gm, 32 gm, 32 gm, 40 gm and 90 gm respectively.
# [2] = in vitro
# Procedure: as §1, §2, §3, §4, §5, §6, §7, §8, §9, §10, §11
# [3] = Buffer control for chemical instability in the incubation buffer; format: physicochemical; conditions: Kphos buffer pH 7.4, 37° C., no microsomes, minus NADPH
# [4] = Example 2B: similar metabolism analysis of further deuterated ibogaine analogs; format: in vitro ADME; conditions: present tense, no data
# Procedure: A similar analysis is performed with each of CD2HO-ibogamine, CDH2O-ibogamine, CD3CD2O-ibogamine, CD3CH2O-ibogamine, CH3CD2O-ibogamine and CH3CDHO-ibogamine.
# [5] = Plasma pharmacokinetics and brain distribution in male Wistar rats after a single intraperitoneal dose; conditions: for AUC(0-t) / Cmax / Tmax: ip, 40 mg/kg; for AUC(0-t): AUClast
# Procedure: Formulation strengths for intraperitoneal administration was 4 mg/mL. A weighed quantity of compound was combined with an appropriate volume of vehicle (10% ethanol and 90% normal saline), the mixture was warmed to 55° C. and vortexed until a clear yellowish solution was obtained. The dosing volume administered was 10 mL/kg for intraperitoneal route.
# Healthy male Wistar rats (8-12 weeks old) weighing between 280 to 300 g were procured from Global, India. Three rats were housed in each cage. […] Temperature and humidity were recorded by auto-controlled data logger system. All the animals were provided laboratory rodent diet (Envigo Research private Ltd, Hyderabad). Reverse osmosis water treated with ultraviolet light was provided ad libitum.
# Blood samples (approximately 120 μL) were collected under light isoflurane anesthesia from retro orbital plexus from a set of three rats at specified time intervals. Samples were collected into labeled micro-tubes, containing K2EDTA solution (10 μL of 20% K2EDTA of solution per mL of blood) as an anticoagulant. Plasma was immediately harvested from the blood by centrifugation at 4000 rpm for 10 min at 4±2° C. and stored below −70±10° C. until bioanalysis.
# Immediately, after blood collection animals were euthanized with excess CO2 and brain was isolated at each time point. Brain was rinsed three times in ice cold PBS (for 5-10 seconds/rinse using ˜5-10 mL fresh PBS in disposable petri dish for each rinse) and dried on blotting paper. Brain samples were homogenized using ice-cold phosphate buffer saline (pH 7.4) and homogenates were stored below −70±10° C. until analysis. Total homogenate volume was three times the tissue weight.
# The extraction procedure for plasma and brain samples and the spiked plasma and brain calibration standards were identical: A 25 PL of study sample or spiked plasma and brain calibration standard was added to individual pre-labeled micro-centrifuge tubes followed by 100 PL of internal standard prepared in Acetonitrile (Glipizide, 500 ng/mL) was added except for blank, where 100 μL of Acetonitrile was added. Samples were vortexed for 5 minutes and then centrifuged for 10 minutes at a speed of 4000 rpm at 4° C. Following centrifugation, 100 μL of clear supernatant was transferred to a 96 well plate and analyzed using LC-MS/MS.
# Non-compartmental analysis tool of Phoenix WinNonlin® (Version 7.0) was used to assess the pharmacokinetic parameters. Peak plasma concentrations (Cmax) and time for the peak plasma concentrations (Tmax) were the observed values. The areas under the concentration time curve (AUClast and AUCinf) were calculated by linear trapezoidal rule. The terminal elimination rate constant, ke was determined by regression analysis of the linear terminal portion of the log plasma concentration-time curve.
# [6] = 0.08 h after CD3O-ibogamine 40 mg/kg i.p.
# [7] = 0.08 h after ibogaine 40 mg/kg i.p.
# [8] = 0.5 h after CD3O-ibogamine 40 mg/kg i.p.
# [9] = 0.5 h after ibogaine 40 mg/kg i.p.
# [10] = 1 h after CD3O-ibogamine 40 mg/kg i.p.
# [11] = 1 h after ibogaine 40 mg/kg i.p.
# [12] = 2 h after CD3O-ibogamine 40 mg/kg i.p.
# [13] = 2 h after ibogaine 40 mg/kg i.p.
# [14] = 3 h after CD3O-ibogamine 40 mg/kg i.p.
# [15] = 3 h after ibogaine 40 mg/kg i.p.
# [16] = male, Wistar, rat, in vivo, plasma, analyte after CD3O-ibogamine 40 mg/kg i.p.
# [17] = male, Wistar, rat, in vivo, plasma, analyte after ibogaine 40 mg/kg i.p.
# [18] = male, Wistar, rat, in vivo, brain, analyte after CD3O-ibogamine 40 mg/kg i.p.
# [19] = male, Wistar, rat, in vivo, brain, analyte after ibogaine 40 mg/kg i.p.
structure (smiles),measurement,setting,value
"CCOc1ccc2[nH]c3c(c2c1)CCN1C[C@H]2C[C@H](CC)C1[C@H]3C2 [EtO-Ibogamine, 10-ethoxy-ibogamine]","CLh, int",[1]; RLM,445 mL/min/kg
same,Percentage turnover of test compounds (percent remaining),"[1]; RLM, 0 min",100%
same,Percentage turnover of test compounds (percent remaining),"[1]; RLM, 5 min",77%
same,Percentage turnover of test compounds (percent remaining),"[1]; RLM, 15 min",42%
same,Percentage turnover of test compounds (percent remaining),"[1]; RLM, 30 min",3%
same,Percentage turnover of test compounds (percent remaining),"[1]; RLM, 60 min",0%
same,% Remaining at 60 min (+NADPH),"[1]; RLM, summary",0%
same,% Remaining at 60 min (−NADPH),"[1]; RLM, without NADPH",88%
same,half-life at 10 μM,"[1]; male, rat, microsomes, pH 7.4",6 min
same,Percentage turnover of test compounds (percent remaining),"[2]; human, microsomes, 0 h, pH 7.4",100%
same,Percentage turnover of test compounds (percent remaining),"[2]; human, microsomes, 5 min, pH 7.4",103%
same,Percentage turnover of test compounds (percent remaining),"[2]; human, microsomes, 0.5 h, pH 7.4",85%
same,% Remaining at 60 min (+NADPH),"[2]; human, microsomes, 1 h, pH 7.4",66%
same,% Remaining at 60 min (−NADPH),"[2]; human, microsomes, 1 h, pH 7.4",106%
same,Percentage turnover of test compounds (percent remaining),"[2]; human, microsomes, 1 h, pH 7.4",66%
same,Percentage turnover of test compounds (percent remaining),"[2]; human, microsomes, […], pH 7.4",98%
same,half-life,"[2]; human, microsomes, pH 7.4",> 60 min
same,"CLh, int","[2]; human, pH 7.4",13 mL/min/kg
same,rate of conversion of the compound compared to that of ibogaine,"[2]; liver microsomes, species not given",essentially the same
same,% Remaining at 60 min (Buffer),[3],88%
[2H]C([2H])Oc1ccc2[nH]c3c(c2c1)CCN1CC2CC(CC)C1C3C2 (stereo not drawn) [CD2HO-ibogamine],degradation compared to ibogaine,[4],at least as fast or faster than ibogaine
same,formation of noribogaine compared to that of ibogaine,[4],as fast or slower
[2H]C([2H])([2H])COc1ccc2[nH]c3c(c2c1)CCN1CC2CC(CC)C1C3C2 (stereo not drawn) [CD3CH2O-ibogamine],degradation compared to ibogaine,[4],at least as fast or faster than ibogaine
same,formation of noribogaine compared to that of ibogaine,[4],as fast or slower
CCC1CC2CC3c4[nH]c5ccc(O)cc5c4CCN(C2)C13 (stereo not drawn) [Noribogaine],Mean brain concentration,[5]; [6],2997 ng/g
same,Mean plasma concentration,[5]; [6],208 ng/mL
same,Mean brain concentration,[5]; [7],2383 ng/g
same,Mean plasma concentration,[5]; [7],312 ng/mL
same,Mean brain concentration,[5]; [8],10413 ng/g
same,Mean plasma concentration,[5]; [8],677 ng/mL
same,Mean brain concentration,[5]; [9],14563 ng/g
same,Mean plasma concentration,[5]; [9],1179 ng/mL
same,Mean brain concentration,[5]; [10],13254 ng/g
same,Mean plasma concentration,[5]; [10],736 ng/mL
same,Mean brain concentration,[5]; [11],17727 ng/g
same,Mean plasma concentration,[5]; [11],1455 ng/mL
same,Mean brain concentration,[5]; [12],14940 ng/g
same,Mean plasma concentration,[5]; [12],690 ng/mL
same,Mean brain concentration,[5]; [13],11692 ng/g
same,Mean plasma concentration,[5]; [13],846 ng/mL
same,Mean brain concentration,[5]; [14],10509 ng/g
same,Mean plasma concentration,[5]; [14],584 ng/mL
same,Mean brain concentration,[5]; [15],10540 ng/g
same,Mean plasma concentration,[5]; [15],861 ng/mL
same,AUClast,"[5]; brain, analyte after CD3O-ibogamine 40 mg/kg i.p.",36953.27 ng·h/g
same,AUClast,"[5]; brain, analyte after ibogaine 40 mg/kg i.p.",39658.47 ng·h/g
same,Mean brain concentration,"[5]; male, Wistar, rat, in vivo",17341 ng/g
same,Mean plasma concentration,"[5]; male, Wistar, rat, in vivo",871 ng/mL
same,AUC(0-t),[5]; [16],1970 ng·h/mL
same,AUC(0-t),[5]; [17],3030 ng·h/mL
same,Cmax,[5]; [18],14900 ng/g
same,Cmax,[5]; [19],17700 ng/g
same,Cmax,[5]; [16],736 ng/mL
same,Cmax,[5]; [17],1460 ng/mL
same,Tmax,[5]; [18],2 h
same,Tmax,[5]; [19],1 h
same,Tmax,[5]; [16],1 h
same,Tmax,[5]; [17],1 h
[2H]C([2H])([2H])C([2H])([2H])Oc1ccc2[nH]c3c(c2c1)CCN1CC2CC(CC)C1C3C2 (stereo not drawn) [CD3CD2O-ibogamine],degradation compared to ibogaine,[4],at least as fast or faster than ibogaine
same,formation of noribogaine compared to that of ibogaine,[4],as fast or slower
[2H]COc1ccc2[nH]c3c(c2c1)CCN1CC2CC(CC)C1C3C2 (stereo not drawn) [CDH2O-ibogamine],degradation compared to ibogaine,[4],at least as fast or faster than ibogaine
same,formation of noribogaine compared to that of ibogaine,[4],as fast or slower
[2H]C([2H])(C)Oc1ccc2[nH]c3c(c2c1)CCN1CC2CC(CC)C1C3C2 (stereo not drawn) [CH3CD2O-ibogamine],degradation compared to ibogaine,[4],at least as fast or faster than ibogaine
same,formation of noribogaine compared to that of ibogaine,[4],as fast or slower
[2H]C(C)Oc1ccc2[nH]c3c(c2c1)CCN1CC2CC(CC)C1C3C2 (stereo not drawn) [CH3CDHO-ibogamine],degradation compared to ibogaine,[4],at least as fast or faster than ibogaine
same,formation of noribogaine compared to that of ibogaine,[4],as fast or slower
